Experimental data reported in patent US20150104868A1, “Methods of Maintaining and Improving Biological Cell Function and Activity” (GARGILL INCORPORATED, priority 2012, published 2015).

Columns and labels:
[1] = system: Mouse intestine (entero-endocrine) STC-1 cells; conditions: STC-1 cells, 10% w/v, 2 hours at 37° C.
Method: Appropriate blanks, positive controls, and standards were also included.
The lactate dehydrogenase (LDH) leakage from cells was analyzed in the supernatants as a marker for cytotoxic cell death.

7B2, PC1/3, PC2 = test: RT-PCR gene expression of insulin production related genes in 1.1E7 cells; type: cell-based, human; conditions: 1.1E7 cells, 10, 30, 45 mM glucose, 24 hours or 7 days, 5 mM ERT
Method: Cell culture: Human 1.1E7 beta cells were cultured in RPMI 1640 medium containing 10% fetal calf serum, 2 mM L-Glutamine and 1% penicillin/streptomycin. Cells were maintained at 37° C. in a 5% CO2 atmosphere.
Gene expression analysis: RNA was isolated from Qiazol suspended cells according to the manufacturer's protocol and quantified spectrophotometrically. Reverse transcription reaction was performed using 500 ng of RNA, which was reverse-transcribed into cDNA using iScript cDNA synthesis kit. Next, real time PCR was performed with a BioRad MyiQ iCycler Single Color RT-PCR detection system using Sensimix™Plus SYBR and Fluorescein, 5 μl diluted (10×) cDNA, and 0.3 μM primers in a total volume of 25 μl. PCR was conducted as follows: denaturation at 95° C. for 10 minutes, followed by 40 cycles of 95° C. for 15 seconds and 60° C. for 45 seconds. After PCR a melt curve (60-95° C.) was produced for product identification and purity. Actin was included as internal control. Data were analyzed using the MyIQ software system (Bio-Rad Laboratories BV, Veenendaal, the Netherlands) and were expressed as relative gene expression (fold change) using the 2^ΔΔCt method.
PC1/3 and PC2 are proprotein or prohormone covertases. […] 7B2 is a small neuroendocrine protein that is required for the production of active prohormone convertase 2 (PC2)

[2] = Human study in patients with Type 2 diabetes mellitus (blood glucose, insulin, C-peptide); type: in vivo; conditions: Type 2 diabetes patients, 12 g three times daily 28 days; before vs 2 hrs after 12 g intake
Method: A human study was conducted in patients with Type 2 diabetes mellitus. Patients were enrolled who were otherwise healthy patients with Type 2 diabetes mellitus as defined by fasting blood glucose >125 mg/dl or with ongoing treatment for Type 2 diabetes mellitus with the exception of insulin. […] Two hours after, blood drawings were taken again. […] After testing each variable for normality, a paired t-test was performed to determine statistical significance. For variables with a non-normal distribution, a Wilcoxon signed rank test was used. All analyses were performed using SPSS (IBM, version 19). Compliance was determined based on a count of empty sachets returned by study participants. Twenty-four subjects were enrolled and none withdrew from the study.

Q: What does the source list for `OC[C@@H](O)[C@@H](O)CO` [ERT, meso-1,2,3,4-tetrahydroxybutane]?
A: cell death (leakage of lactate dehydrogenase) [1]: cells could tolerate higher concentrations of ERT than glucose and other sugars tested; gene expression of 7B2, PC1/3 and PC2 (7B2, PC1/3, PC2): improved the expression of genes involved in the conversion of (pre)proinsulin to insulin; blood C-peptide levels [2]: increase in blood C-peptide levels; blood glucose levels [2]: borderline significant decrease in blood glucose levels; blood insulin levels [2]: non-significant increase in insulin levels
